From patent publication US20170119727A1, “A THERAPEUTIC PROTOCOL FOR TREATING OVARIAN CANCER” (Bionomics Limited, priority 2014, published 2017) come the findings set out here.

The subject of data set [1] is Human umbilical vein endothelial cells (HUVECs), tumour type activated endothelial cells. As to the kind of experiment: Proliferation assay - activated endothelium (MTT). It is filed as cell-based. Conditions: for IC50: Homo sapiens, HUVEC, tumour type activated endothelial cells (HUVECs), 48 hrs, read-out: HUBECs Tum: IC50; for potency against activated (tumor) versus quiescent (normal) endothelial cells: activated compared with quiescent endothelial cells. The method, then: Proliferation Assay—Activated Endothelium:
(§1) Human umbilical vein endothelial cells (CC-2519, Clonetics) were plated at 2500 cells/well in EGM2 (CC-3162, Clonetics) in a 96 well plate in triplicate. Cells were cultured overnight at 37° C. 5% CO2. Medium was subsequently replaced with fresh medium including the compound or negative control. Cells were cultured for a period of 48 hrs. An MTT assay was performed to measure changes in cell numbers. Briefly, 20 μl of MTT reagent was added to cells containing 100 μl of EGM2 and incubated at 37° C. for 2 hours. Absorbance was measured at 492 nm.

The test system of data set [2] is MCF-7. As to the kind of experiment: Growth inhibition of cancer cell line (Sulforhodamine B or Systmex cell counting assay). In kind it is cell-based. The settings on record: Homo sapiens, MCF7, concentration required to inhibit net cell growth by 50%.
In data set [3] the test system is Human umbilical vein endothelial cells (HUVECs), normal quiescent type endothelial cells. As to the kind of experiment: Proliferation assay - quiescent endothelium (MTT). In kind it is cell-based. Conditions: HUVEC, 48 hrs, read-out: HUBECs Norm: IC50. The method, then:
Proliferation Assay—Quiescent Endothelium:
as §1, with “15000” for “2500”, “EBM2 (CC-3156, Clonetics)+0.5% FBS (CC-4101A, Clonetics)+GA-1000 (CC-4381A,” for “EGM2 (CC-3162,”, “EBM2+0.5% FBS” for “EGM2”

In data set [4] the test system is tubulin. Kind of data set: Tubulin polymerization inhibition. It is filed as biochemical.
Data set [5] deals with cisplatin resistant A2780Cis solid orthotopic tumours. As to the kind of experiment: Tumour growth inhibition, combination with carboplatin and gemcitabine. In kind it is in vivo, Balb/c nu/nu mice. Conditions: Example 2 24 mg/kg + carboplatin 50 mg/kg + gemcitabine 12.5 mg/kg i.v.; triplet compared to carboplatin/gemcitabine doublet; up to 21 days. The method, then: (a) Example 2 Treatment in Combination with Carboplatin (Combination Partner (b)) and Gemcitabine (Combination Partner (c)).
Balb/c nu/nu mice bearing cisplatin resistant A2780Cis solid orthotopic tumours were treated with compound Example 2 at 24 mg/kg, carboplatin at 50 mg/kg and gemcitabine at 12.5 mg/kg. Animals were i.v. dosed with a single dose of carboplatin, two weekly doses of Example 2 and two weekly doses of gemcitabine. Each cycle of Example 2 and gemcitabine was dosing on days 1 and 8; and each cycle of carboplatin was dosing on day 1.
Tumour growth as well as animal health were monitored for up to 21 days post-day 1 of treatment.

Data set [6] has as its system recurrent ovarian cancer. Kind of data set: Phase I clinical trial: objective response (CA125 or RECIST). In kind it is in vivo, female ovarian cancer subjects (patients). Conditions: combination with carboplatin and gemcitabine. The text has this: (§2) A standard 3+3 Phase I design was used to determine the recommended dose of compound Example 2 with combination partners (b) and (c). In addition, this design also facilitated the determination of secondary endpoints including progression-free survival (PFS) and adverse event rates. Further correlative endpoints that measure the effect of the drug combination on compound Example 2 pharmacokinetics (PK) were also captured in this trial design.
(§3) The patient cohort selected for this Phase I clinical trial were female ovarian cancer subjects with a PFS interval of ≧4 months after first or second line platinum-based chemotherapy.
(§4) The dosing regime is outlined in FIG. 4. This protocol included compound Example 2 escalation at 12 or 16 mg/m^2 IV on days 2 and 9, carboplatin AUC4 on day 1, gemcitabine escalation 800 and 1000 mg/m^2 days 1 and 8. Treatment proceeded across a 21 day cycle for a maximum of 6 cycles. Treatment was followed by single agent maintenance with compound Example 2 at 16 mg/m^2 for a maximum of 6 additional cycles.
(§5) The key outcomes of this trial include the identification of the maximum tolerated dose (MTD) of compound Example 2 and combination partners (b) and (c), dose limiting toxicities and patient response measured according to CA125 levels or RECIST. Additional plasma biomarker studies that measure concentrations of ferritin, interleukin-8, interleukin-16 and macrophage inflammatory protein-1β provide correlative data relating to the PK of compound Example 2.

Data set [7] deals with MDA-MB-231 solid orthotopic tumours. Kind of data set: Tumour growth inhibition, single agent. In kind it is in vivo, Balb/c nu/nu mice. The settings on record: Example 2 40 mg/kg i.v., two cycles; vs vehicle; significant from day 4 (p<0.001) through Day 70. The method, then: Balb/c nu/nu mice bearing MDA-MB-231 solid orthotopic tumours were treated with compound Example 2 at 40 mg/kg. Animals were i.v. dosed with a total of two cycles of Example 2 treatment. Each cycle was dosing on […] followed by a three week no-dosing period. Tumour growth represented as a ratio to initial tumour volume is shown over a total of 72-days.
Tumour growth as well as animal health were monitored for up to 72 days post-day 1 of treatment. […] Significant differences in tumour growth between Example 2 treated (n=64) and vehicle treated (n=20) animals were observed as early as day 4 (p<0.001; unpaired t-test; Prism® analysis) through to Day 70.

Data set [8] can be described thus: Phase I clinical trial: dose limiting toxicities, adverse events, recommended dose. In kind it is in vivo, female ovarian cancer subjects (patients).
Description: as §2, §3, §4, §5

The mark [9] stands for this setting: Dose level 1 (n = 6), combination with carboplatin and gemcitabine, all cycles.
Where [10] appears, read: Dose level 2a (n = 3), combination with carboplatin and gemcitabine, all cycles.
Setting [11] is: Dose level 2b (n = 60 as printed), combination with carboplatin and gemcitabine, all cycles.

Molecules are shown by their SMILES.

Take `COc1ccc2c(C(=O)c3cc(OC)c(OC)c(OC)c3)coc2c1` [Comparator C]: the results for the IC50 in data set [1], in data set [2] and in data set [3] were 0.01 to 0.1 µM, 0.055 µM and 0.01 to 0.1 µM, respectively.
With `COc1cc(C(=O)c2c(C)oc3c(O)c(OC)ccc23)cc(OC)c1OC` [Example 1, 2-Methyl-7-hydroxy-3-(3,4,5-trimethoxybenzoyl)-6-methoxybenzofuran], the IC50 in data set [1] was 0.0001 to 0.001 µM; in data set [2], 0.002 µM; in data set [3], 0.01 to 0.1 µM. The “potency against activated (tumor) versus quiescent (normal) endothelial cells” value in data set [1] was “high potency towards tumor endothelial cells (activated) over normal endothelial cells (quiescent)”. For the same molecule, in data set [4], the tubulin polymerization inhibition result was “potent tubulin polymerization inhibitor”.
As to `COc1ccc(/C=C\c2cc(OC)c(OC)c(OC)c2)cc1O` [Comparator A], the half-maximal inhibitory concentration (IC50) in data set [1] is 0.001 to 0.01 µM; in data set [2] it was 0.005 µM; in data set [3], 0.001 to 0.01 µM.
Turning to `COc1ccc(/C=C\c2cc(OC)c(OC)c(OC)c2)cc1O` [Combretastatin A4], the “potency against activated (tumor) versus quiescent (normal) endothelial cells” value in data set [1] was “equally potent against quiescent and activated endothelial cells”.
For `COc1ccc(/C=C\c2cc(OC)c(OC)c(OC)c2)cc1OP(=O)(O)O` [Comparator B], the concentration for half-maximal inhibition (IC50) is 0.001 to 0.01 µM in data set [1], 0.005 µM in data set [2] and 0.001 to 0.01 µM in data set [3].
Take `COc1ccc2c(C(=O)c3cc(OC)c(OC)c(OC)c3)c(Br)oc2c1` [Comparator D]: the values for the IC50 in data set [1], in data set [2] and in data set [3] were 0.1 to 1 µM, 0.5 µM and 0.1 to 1 µM, respectively.
With `COc1cc(C(=O)c2c(C)oc3c(OP(=O)([O-])[O-])c(OC)ccc23)cc(OC)c1OC.[Na+].[Na+]` [Example 2, Disodium 6-methoxy-2-methyl-3-(3,4,5-trimethoxybenzoyl)benzofuran-7-yl phosphate], the “Tumour growth (tumor volume)” value in data set [5] is given as “tumour growth inhibition”. In addition, in data set [6] (Dose level 1, 6 accrued), the “Objective responses (CA125 or RECIST) %” value was determined as 68% and the “Objective responses (CA125 or RECIST) N” value is on record as 4. Besides, in data set [6] (Dose level 2a, 3 accrued), the “Objective responses (CA125 or RECIST) %” value is 33% and the “Objective responses (CA125 or RECIST) N” value is 1. In addition, in data set [6] (Dose level 2b, 6 accrued), the “Objective responses (CA125 or RECIST) %” value amounted to 83% and the “Objective responses (CA125 or RECIST) N” value came out at 5. In data set [6] (all dose levels, 15 accrued), the “Objective responses (CA125 or RECIST) %” value is recorded as 68% and the “Objective responses (CA125 or RECIST) N” value turned out to be 10. For the same molecule, the “Tumour growth (ratio to initial tumour volume)” value in data set [7] is given as “tumour growth inhibition”. In addition, in data set [8] (setting [9]), the “Hypertension Gr 3” value turned out to be 1, the “Neutropenia Gr 3” value was found to be 3 and the “Neutropenia Gr 4” value came to 2. Also, in data set [8] (Dose level 1: Example 2 12 mg/m2 + carboplatin AUC4 + gemcitabine 800 mg/m2, 6 patients), the “Number of DLTs” value turned out to be 1. In addition, in data set [8] (setting [10]), the “Hypersensitivity Gr 3” value is listed as 1, the “Neutropenia Gr 3” value is 1, the “Neutropenia Gr 4” value came out at 2 and the “Thrombocytopenia Gr 4” value was 2. For the same molecule, the “Number of DLTs” value in data set [8] (Dose level 2a: Example 2 16 mg/m2 + carboplatin AUC4 + gemcitabine 800 mg/m2, 3 patients) stood at 2. Also, in data set [8] (setting [11]), the “Anaemia Gr 3” value stood at 1, the “Neutropenia Gr 3” value amounted to 5 and the “Thrombocytopenia Gr 3” value amounted to 2. Moreover, the “adverse events or dose limiting toxicities” value in data set [8] (Dose level 2b: Example 2 12 mg/m2 + carboplatin AUC4 + gemcitabine 1000 mg/m2) is “no adverse events or dose limiting toxicities were observed”. Further, the “Number of DLTs” value in data set [8] (Dose level 2b: Example 2 12 mg/m2 + carboplatin AUC4 + gemcitabine 1000 mg/m2, 6 patients) was 0. In addition, the safety and tolerability result in data set [8] (combination with combination partners (b) carboplatin and (c) gemcitabine, subjects with recurrent ovarian cancer) is “safe and tolerable”. Also, in data set [8] (with carboplatin AUC4 and gemcitabine 1000 mg/m^2 (dose level 2b)), the recommended dose came out at 12 mg/m^2.
